Consider 11 compounds from patent US6566355B1 (Hoffmann-La Roche Inc., priority 1991, dated 2003).

One test has as its target T1, β-lactamase (Citrobacter freundii, UniProt P05193).
T1 construct: Various β-lactamases can be isolated from penicillin- or cephalosporin-resistant bacterial strains such as; endogenous in cells; host or cells: Citrobacter freundii 1203 (enzyme purified from the crude cell extract, after ampicillin induction when necessary)
The test is described as follows: biochemical. The essentials:
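β-lactamase from C. freundii 1203 crude extract (French press, 20 mM Tris-HCl pH 7.0) assayed with 0.1 mM nitrocefin in 50 mM phosphate pH 7.0 at 37° C, enzyme set to ΔA/min about 0.1, read at 482 nm. IC50 is inhibitor concentration giving 50% inhibition of nitrocefin cleavage, determined graphically.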

The subject of a further test is Citrobacter freundii. Put plainly: MIC in vitro of a 1:4 combination of ceftriaxone with a compound of formula I (test D). The test is classed as cell-based. Conditions: 1:4 combination of ceftriaxone with the compound. The method, then: D. Determination of the β-lactamase-inhibiting activity by combination of a compound of general formula I with ceftriaxone
The minimum inhibitory concentration in vitro (MIC in μg/ml) of a 1:4 combination of ceftriaxone with a compound of formula I against Citrobacter freundii is measured and compiled in Table 2 hereinafter.

Setting [1] is: IC 50 nM, isolated β-lactamase of Citrobacter freundii, substrate nitrocefin 0.1 mM, 15 minutes pre-incubation with inhibitor, 37° C., pH 7.0.

By IC50 is commonly meant the concentration that gives 50% inhibition. Lower therefore signals higher potency. For orientation: MIC means the lowest concentration found to suppress growth.

Structures are written as SMILES. Counter-ions that a name gives are not always drawn. Like-named read-outs stand apart in the source and are kept apart here.

T1 sequence (P05193 21-381): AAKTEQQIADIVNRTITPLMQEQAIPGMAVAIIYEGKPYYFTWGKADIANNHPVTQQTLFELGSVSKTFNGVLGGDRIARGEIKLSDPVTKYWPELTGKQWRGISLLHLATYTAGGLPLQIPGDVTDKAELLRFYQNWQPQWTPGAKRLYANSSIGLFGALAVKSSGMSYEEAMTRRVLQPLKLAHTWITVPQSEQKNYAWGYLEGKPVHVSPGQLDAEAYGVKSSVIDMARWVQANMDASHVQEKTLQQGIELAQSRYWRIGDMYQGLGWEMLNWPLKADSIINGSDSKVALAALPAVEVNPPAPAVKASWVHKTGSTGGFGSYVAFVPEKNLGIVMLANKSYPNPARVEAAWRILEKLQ

At β-lactamase (setting [1]), `O=C(NCc1ccc(O)cc1)N1CC[C@@H]2[C@H]1C(=O)N2S(=O)(=O)[O-].[Na+]` [17(ab), (1S,5R)-2-[4-Hydroxy-benzylcarbamoyl]-7-oxo-2,6-diazabicyclo[3.2.0]heptane-6-sulfonic acid sodium salt] gave an IC50 of 194 nM. For the same compound, the “MIC” value in the test on Citrobacter freundii came out at 1 µg/mL.

Regarding `N[C@H](C(=O)N1CC[C@@H]2[C@H]1C(=O)N2S(=O)(=O)O)c1ccccc1` [4(d), (1S,5R)-7-Oxo-2-(L-2-phenylglycyl)-2,6-diazabicyclo[3.2.0]heptane-6-sulphonic acid], it took 275 nM to reach half-maximal inhibition against β-lactamase (IC50). Besides, the minimal inhibitory concentration (MIC) in the test with Citrobacter freundii was determined as 2 µg/mL.

Regarding `O=C(NCCc1ccccn1)N1CC[C@@H]2[C@H]1C(=O)N2S(=O)(=O)[O-].[Na+]` [17(b), (1S,5R)-7-Oxo-2-[2-(pyridin-2-yl)ethylcarbamoyl]-2,6-diazabicyclo[3.2.0]heptane-6-sulphonic acid sodium salt], on β-lactamase (setting [1]), the IC50 worked out at 285 nM. In addition, the “MIC” value in the test with Citrobacter freundii came out at 2 µg/mL.

On β-lactamase (setting [1]), `O=C(Cc1cccnc1)N1CC[C@@H]2[C@H]1C(=O)N2S(=O)(=O)[O-].[Na+]` [6(i), (1S,5R)-7-Oxo-2-(3-pyridylacetyl)-2,6-diazabicyclo[3.2.0]-heptane-6-sulphonic acid sodium salt] registered an IC50 of 700 nM. Also, in the test with Citrobacter freundii, the “MIC” value turned out to be 4 µg/mL.

As to `O=C(NCc1ccco1)N1CC[C@@H]2[C@H]1C(=O)N2S(=O)(=O)O` [Example 17(a), (1S,5R)-2-(2-Furan-2-yl-methylcarbamoyl)-7-oxo-2,6-diazabicyclo[3.2.0]heptane-6-sulphonic acid sodium salt], at β-lactamase, it took 156 nM to reach half-maximal inhibition (IC50). Moreover, the “MIC” value with Citrobacter freundii amounted to 2 µg/mL.

Consider `O=C(NNc1ccccc1)N1CC[C@@H]2[C@H]1C(=O)N2S(=O)(=O)O` [17(d), (1S,5R)-7-Oxo-2-(2-phenyl-carbazoyl)-2,6-diazabicyclo[3.2.0]heptane-6-sulphonic acid sodium salt], for which, on β-lactamase (setting [1]), the IC50 came to 197 nM. Also, the “MIC” value in the test with Citrobacter freundii was found to be 2 µg/mL.

Take `O=C(CSc1nnnn1-c1ccccc1)N1CC[C@@H]2[C@H]1C(=O)N2S(=O)(=O)O` [5(q), (1S,5R)-7-Oxo-2-[(1-phenyl-tetrazol)-5-ylsulfanyl-acetyl]-2,6-diazabicyclo[3.2.0]heptane-6-sulfonic acid sodium salt]: inhibition against β-lactamase was half-maximal at 5 nM (IC50). In addition, the minimal inhibitory concentration (MIC) in the test with Citrobacter freundii came to 2 µg/mL.

`Nc1nc(SCC(=O)N2CC[C@@H]3[C@H]2C(=O)N3S(=O)(=O)[O-])n(C(=O)OCc2ccccc2)n1.[Na+]` [23(g), (1S,5R)-2-(5-Amino-2-benzyloxycarbonyl-2H-1,2,4-triazol-3-ylsulfanyl-acetyl)-7-oxo-2,6-diazabicyclo[3.2.0]heptane-6-sulfonic acid sodium salt] displayed an IC50 at β-lactamase (setting [1]) of 280 nM. In addition, in the test with Citrobacter freundii, the “MIC” value is 2 µg/mL.

Consider `O=C1OCCN1NC(=O)N1CC[C@@H]2[C@H]1C(=O)N2S(=O)(=O)[O-].[Na+]` [17(ad), (1S,5R)-7-Oxo-2-[2-oxo-oxazolidin-3-ylcarbamoyl]-2,6-diazabicyclo[3.2.0]heptane-6-sulfonic acid sodium salt], for which the IC50 at β-lactamase (setting [1]) was found to be 75 nM. In addition, the minimum inhibitory concentration (MIC) in the test with Citrobacter freundii is 2 µg/mL.

In the case of `O=C(NCC1CCCO1)N1CC[C@@H]2[C@H]1C(=O)N2S(=O)(=O)[O-].[Na+]` (mixture of isomers) [17(y), (1S,5R)-2-[(R) and (S)-Tetrahydrofuran-2-ylmethylcarbamoyl]-7-oxo-2,6-diaza-bicyclo[3.2.0]heptane-6-sulfonic acid sodium salt], at β-lactamase (setting [1]), the concentration for half-maximal inhibition (IC50) was 238 nM. The “MIC” value in the test with Citrobacter freundii amounted to 1 µg/mL.

Compound `COc1cc(CNC(=O)N2CC[C@@H]3[C@H]2C(=O)N3S(=O)(=O)[O-])on1.[Na+]` [17(aa), (1S,5R)-2-[3-Methoxy-isoxazol-5-ylmethylcarbamoyl]-7-oxo-2,6-diazabicyclo[3.2.0]heptane-6-sulfonic acid sodium salt] yielded an IC50 against β-lactamase (setting [1]) of 75 nM. Also, the minimal inhibitory concentration (MIC) in the test on Citrobacter freundii worked out at 0.5 µg/mL.
